The values below come from ChEMBL document CHEMBL4052641 (Eur J Med Chem, 2017).

Data set [1] has as its target T1, Xanthine dehydrogenase/oxidase (Bos taurus, UniProt P80457). As to the kind of experiment: Inhibition of bovine milk xanthine oxidase assessed as reduction in uric acid formation using xanthine as substrate preincubated for 5 mins followed by substrate addition by UV-Vis spectrophotometric assay.
The target of data set [2] is T1, Xanthine dehydrogenase/oxidase. As to the kind of experiment: Potency index, ratio of allopurinol IC50 to compound IC50 for bovine milk xanthine oxidase. The following applies: cattle.
Data set [3] deals with T2, Xanthine dehydrogenase/oxidase (Homo sapiens, UniProt P47989). Briefly: Inhibition of xanthine oxidase (unknown origin) assessed as reduction in uric acid formation using xanthine as substrate after 10 mins.
T2 sequence (P47989 whole entry): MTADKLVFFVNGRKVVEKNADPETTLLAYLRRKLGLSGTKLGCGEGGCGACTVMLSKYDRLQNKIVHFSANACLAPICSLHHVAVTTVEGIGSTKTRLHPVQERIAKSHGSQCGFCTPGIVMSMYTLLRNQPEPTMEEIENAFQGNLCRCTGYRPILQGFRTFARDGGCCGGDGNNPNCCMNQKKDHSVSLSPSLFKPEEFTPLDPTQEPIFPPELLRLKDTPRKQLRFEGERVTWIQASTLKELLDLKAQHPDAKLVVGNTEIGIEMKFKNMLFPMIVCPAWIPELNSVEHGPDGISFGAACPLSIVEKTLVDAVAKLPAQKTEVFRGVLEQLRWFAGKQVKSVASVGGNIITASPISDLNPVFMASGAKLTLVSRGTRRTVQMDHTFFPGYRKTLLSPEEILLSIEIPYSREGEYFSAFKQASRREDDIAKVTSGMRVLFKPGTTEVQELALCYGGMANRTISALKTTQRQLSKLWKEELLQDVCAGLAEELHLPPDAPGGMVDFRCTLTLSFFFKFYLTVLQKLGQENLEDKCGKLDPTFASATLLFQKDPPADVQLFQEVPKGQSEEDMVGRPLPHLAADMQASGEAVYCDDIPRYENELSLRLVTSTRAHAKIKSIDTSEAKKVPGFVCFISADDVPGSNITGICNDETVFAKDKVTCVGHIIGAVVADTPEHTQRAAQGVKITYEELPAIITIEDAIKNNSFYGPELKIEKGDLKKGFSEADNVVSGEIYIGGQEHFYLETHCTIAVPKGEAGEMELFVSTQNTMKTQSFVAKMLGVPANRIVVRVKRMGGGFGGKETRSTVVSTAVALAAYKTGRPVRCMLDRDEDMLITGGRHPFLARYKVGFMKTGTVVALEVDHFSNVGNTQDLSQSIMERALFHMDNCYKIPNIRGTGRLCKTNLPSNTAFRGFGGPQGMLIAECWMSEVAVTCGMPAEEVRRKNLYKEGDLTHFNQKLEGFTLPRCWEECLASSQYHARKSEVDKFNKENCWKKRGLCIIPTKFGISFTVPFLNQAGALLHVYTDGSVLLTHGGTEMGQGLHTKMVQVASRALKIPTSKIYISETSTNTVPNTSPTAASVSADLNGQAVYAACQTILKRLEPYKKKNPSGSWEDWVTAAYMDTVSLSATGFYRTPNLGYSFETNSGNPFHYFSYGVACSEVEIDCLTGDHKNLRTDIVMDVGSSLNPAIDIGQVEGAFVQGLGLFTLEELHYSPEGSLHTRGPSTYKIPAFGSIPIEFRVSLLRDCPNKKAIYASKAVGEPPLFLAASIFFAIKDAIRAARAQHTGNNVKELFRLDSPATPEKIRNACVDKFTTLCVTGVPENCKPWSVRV
The target in data set [4] is T2, Xanthine dehydrogenase/oxidase. As to the kind of experiment: Potency index, ratio of allopurinol IC50 to compound IC50 for xanthine oxidase (unknown origin).
The nature of data set [5]: Inhibition of butter milk xanthine oxidase (unknown origin) assessed as reduction in uric acid formation using xanthine as substrate by spectrophotometric assay.
Data set [6] has as its target T2, Xanthine dehydrogenase/oxidase. As to the kind of experiment: Inhibition of xanthine oxidase (unknown origin) using xanthine as substrate measured at every 1 mins up to 5 mins.
Data set [7] deals with T1, Xanthine dehydrogenase/oxidase. Briefly: Inhibition of bovine milk xanthine oxidase assessed using xanthine as substrate after 10 mins by fluorometric assay.
Data set [8] is described as follows: Potency index, ratio of allopurinol IC50 to compound IC50 for butter milk xanthine oxidase (unknown origin).
Data set [9] can be described thus: Inhibition of butter milk xanthine oxidase (unknown origin) assessed as reduction in uric acid formation using xanthine as substrate by UV-Vis spectrophotometric assay.
Data set [10] concerns the target T1, Xanthine dehydrogenase/oxidase. Briefly: Inhibition of bovine milk xanthine oxidase assessed as reduction in uric acid formation using xanthine as substrate preincubated for 3 hrs followed by substrate addition by UV-Vis spectrophotometric assay.
The target is the same in data set [11]. As to the kind of experiment: Potency index, ratio of apigenin IC50 to compound IC50 for bovine milk xanthine oxidase. The following applies: cattle.
The target of data set [12] is T2, Xanthine dehydrogenase/oxidase. Briefly: Non-competitive inhibition of human xanthine oxidase.
Data set [13] is described as follows: Potency index, ratio of quercetin IC50 to compound IC50 for butter milk xanthine oxidase (unknown origin).
For data set [14], the target named is T2, Xanthine dehydrogenase/oxidase. Briefly: Inhibition of xanthine oxidase (unknown origin) assessed as reduction in uric acid formation using xanthine as substrate after 4 mins by UV-Vis spectrophotometric assay.
The nature of data set [15]: Inhibition of butter milk xanthine oxidase (unknown origin) assessed as reduction in uric acid formation using xanthine as substrate by double beam spectrophotometric assay.
Data set [16] deals with T2, Xanthine dehydrogenase/oxidase. As to the kind of experiment: Inhibition of xanthine oxidase (unknown origin) assessed as reduction in uric acid formation using xanthine as substrate after 30 mins by UV-Vis spectrophotometric assay.
Data set [17] concerns the target T1, Xanthine dehydrogenase/oxidase. Briefly: Inhibition of bovine milk xanthine oxidase assessed as reduction in uric acid formation using xanthine as substrate preincubated for 3 hrs followed by substrate addition measured after 1 min by UV spectrophotometric assay.
For data set [18] the target is unchanged. As to the kind of experiment: Competitive inhibition of bovine milk xanthine oxidoreductase assessed as reduction in uric acid formation by spectrophotometric assay.

T1 sequence (P80457 whole entry): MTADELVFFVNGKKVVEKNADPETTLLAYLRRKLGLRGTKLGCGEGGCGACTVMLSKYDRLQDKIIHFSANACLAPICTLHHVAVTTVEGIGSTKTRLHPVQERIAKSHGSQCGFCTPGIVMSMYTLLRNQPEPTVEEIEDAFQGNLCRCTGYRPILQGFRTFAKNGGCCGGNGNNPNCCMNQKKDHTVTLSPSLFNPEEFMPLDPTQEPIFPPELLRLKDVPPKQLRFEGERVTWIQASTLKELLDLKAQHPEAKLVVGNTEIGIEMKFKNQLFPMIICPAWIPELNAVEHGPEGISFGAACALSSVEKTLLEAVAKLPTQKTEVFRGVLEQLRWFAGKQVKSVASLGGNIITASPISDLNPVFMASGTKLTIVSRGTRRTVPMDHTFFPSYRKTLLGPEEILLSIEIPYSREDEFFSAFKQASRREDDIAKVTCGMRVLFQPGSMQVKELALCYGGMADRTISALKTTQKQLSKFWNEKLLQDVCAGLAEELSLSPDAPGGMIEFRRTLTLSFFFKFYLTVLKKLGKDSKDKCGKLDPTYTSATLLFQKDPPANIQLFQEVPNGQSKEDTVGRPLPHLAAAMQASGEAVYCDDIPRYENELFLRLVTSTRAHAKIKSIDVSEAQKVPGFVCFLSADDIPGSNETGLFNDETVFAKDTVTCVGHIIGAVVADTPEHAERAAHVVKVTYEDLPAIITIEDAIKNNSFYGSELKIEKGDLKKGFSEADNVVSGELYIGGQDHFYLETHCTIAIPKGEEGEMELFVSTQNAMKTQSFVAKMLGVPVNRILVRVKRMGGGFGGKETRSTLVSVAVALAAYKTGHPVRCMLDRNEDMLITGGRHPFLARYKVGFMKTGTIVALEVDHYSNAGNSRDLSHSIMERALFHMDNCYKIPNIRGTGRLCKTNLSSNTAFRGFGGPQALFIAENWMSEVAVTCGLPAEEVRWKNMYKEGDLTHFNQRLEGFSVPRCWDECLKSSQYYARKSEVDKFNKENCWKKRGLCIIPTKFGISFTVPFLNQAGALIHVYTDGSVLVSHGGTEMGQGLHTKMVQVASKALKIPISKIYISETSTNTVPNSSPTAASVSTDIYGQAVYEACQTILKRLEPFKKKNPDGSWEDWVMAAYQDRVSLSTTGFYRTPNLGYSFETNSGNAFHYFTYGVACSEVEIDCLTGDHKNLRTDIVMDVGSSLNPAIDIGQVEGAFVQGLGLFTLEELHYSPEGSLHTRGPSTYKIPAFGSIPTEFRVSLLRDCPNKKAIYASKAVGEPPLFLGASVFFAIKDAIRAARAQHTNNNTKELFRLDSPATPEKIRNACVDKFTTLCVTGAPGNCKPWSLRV

The IC50 is the point on the concentration scale where inhibition reaches its midpoint. As for `O=c1cc(-c2cccnc2)[nH]c2ccccc12`, the IC50 in data set [1] stood at 6.24 µM. Besides, in data set [2], the “Ratio IC50” value is 1.33.
Consider `O=C1CC(c2ccc(O)c(-c3c(O)cc(O)c4c3OC(c3ccc(O)cc3)CC4=O)c2)Oc2cc(O)cc(O)c21` (stereo not drawn), for which the IC50 in data set [3] was 0.092 µM. The “Ratio IC50” value in data set [4] stood at 1.09.
On to `Oc1ncnc2[nH]ncc12` [ALLOPURINOL], for which the IC50 in [5] was 5.3 µM.
On to `Oc1nc(-c2ccccc2)cc(-c2ccccc2)n1`, for which, in [1], the IC50 came out at 10.2 µM. Also, the “Ratio IC50” value in data set [2] is 1.2.
In data set [6], `CC(C)=CCc1cc(C(=O)/C=C/c2ccc(O)c(O)c2)c(O)cc1O` [BROUSSOCHALCONE A] came in with an IC50 of 0.6 µM. In addition, in data set [4], the “Ratio IC50” value is on record as 3.33.
`O=c1cc(-c2ccc(O)c(O)c2)oc2cc(O)cc(O)c12` [LUTEOLIN] had an IC50 in [7] of 10.2 µM. In addition, the “Ratio IC50” value in [2] was 25.32.
Take `CCCCCOC(=O)C(=O)Nc1[nH]cnc1C(N)=O`: in data set [8], the Ratio IC50 was 2.19. In addition, in [9], the IC50 came to 1.92 µM.
In the case of `O=c1cc(-c2ccccc2)oc2cc(O)cc(O)c12` [CHRYSIN], the IC50 in [10] is 1.26 µM. Besides, the “Ratio IC50” value in data set [2] was found to be 2.33; in [11] it was 2.83.
Turning to `CCCCSc1nc(O)c2[nH]cnc2n1`, the Ratio IC50 in data set [8] was 1.08. Further, the IC50 in [9] stood at 3.88 µM.
The term Ki denotes the dissociation constant of the complex between target and ligand, obtained from inhibition or displacement. For the molecule `Cc1nc(-c2ccc(OCC(C)C)c(C#N)c2)sc1C(=O)O` [FEBUXOSTAT], in [12], the affinity corresponds to a Ki of 0.0001 µM.
In the case of `CCCCCCOC(=O)C(=O)Nc1[nH]cnc1C(N)=O`, the Ratio IC50 in [8] was 3.78. Moreover, the IC50 in [9] stood at 1.11 µM.
As for `O=c1nc(-c2ccncc2)cc(-c2cccs2)[nH]1`, the 50% inhibitory concentration (IC50) in data set [1] came out at 6.45 µM. Besides, the “Ratio IC50” value in data set [2] came to 1.9.
For the molecule `CC(C)(C)c1ccc(-c2cc(=O)c3c(O)cc(O)cc3o2)cc1`, the IC50 in data set [5] was 0.0908 µM. In addition, the Ratio IC50 in data set [13] was 4.22.
As to `CCCOCCSc1nc2[nH]cnc2c(=O)[nH]1`, the Ratio IC50 in [8] was determined as 6.27. Besides, in data set [9], the half-inhibitory concentration (IC50) stood at 0.67 µM.
Regarding `COc1ccc(-c2cc(=O)c3c(O)cc(O)cc3o2)cc1` [ACACETIN], the 50% inhibitory concentration (IC50) in data set [5] came out at 0.22 µM. Moreover, the Ratio IC50 in [13] turned out to be 1.74.
As for `O=C(/C=C/c1ccc2c(c1)O[C@H](c1ccc(O)c(O)c1)[C@@H](C(=O)O)O2)O/C=C\c1ccc(O)c(O)c1`, the half-inhibitory concentration (IC50) in data set [5] lay in the range of 2 to 4.22 µM. For the same molecule, in data set [13], the Ratio IC50 is 2.65.
With `CCCCCCSc1nc2c(=O)[nH]c(O)nc2[nH]1`, the Ratio IC50 in [8] is 6.36. Moreover, the IC50 in data set [9] turned out to be 0.66 µM.
Regarding `O=c1nc(-c2ccc(Cl)cc2)cc(-c2ccc(Cl)cc2)[nH]1`, the IC50 in data set [1] stood at 12 µM. In data set [2], the “Ratio IC50” value was 1.02.
Take `C=CCc1ccc(O)c(O)c1` [HYDROXYCHAVICOL]: the “Ratio IC50” value in data set [4] is listed as 1.84. In addition, the IC50 in data set [14] was determined as 16.7 µM.
Regarding `O=c1oc2c(O)ccc(-c3oc4cc(O)cc(O)c4c(=O)c3O)c2s1`, the Ratio IC50 in [13] came out at 8. Also, the IC50 in [15] was 0.05 µM.
For the molecule `C=CCc1cc(O)c(O)cc1C(C=C)c1ccc(O)c(O)c1` (stereo not drawn), in [6], the IC50 was determined as 0.28 µM. Further, the “Ratio IC50” value in data set [4] amounted to 25.21.
Turning to `O=C(/C=C/c1ccc2c(c1)O[C@H](C(=O)O)[C@H](c1ccc(O)c(O)c1)O2)O/C=C\c1ccc(O)c(O)c1`, the IC50 in data set [5] is 0.6 to 1.1 µM. In addition, the Ratio IC50 in data set [13] was 8.83.
For `O=c1nc(-c2ccncc2)cc(-c2cccc3ccccc23)[nH]1`, the IC50 in data set [1] amounted to 11.2 µM. The “Ratio IC50” value in [2] worked out at 1.09.
For `COCCCCSc1nc2[nH]cnc2c(=O)[nH]1`, the Ratio IC50 in data set [8] was 150. Also, the IC50 in data set [9] is 0.028 µM.
On to `O=[N+]([O-])c1cccc(C2Nc3ccccc3-c3cc(-c4ccccc4)nn32)c1` (stereo not drawn), for which the IC50 in [16] was 20.9 µM. Besides, the “Ratio IC50” value in data set [4] was found to be 1.51.
Consider `CCOCCCSc1nc2[nH]cnc2c(=O)[nH]1`, for which, in [8], the Ratio IC50 turned out to be 72.4. Further, in [9], the IC50 was 0.058 µM.
In the case of `O=c1cc(-c2ccc(O)cc2)oc2cc(O)cc(O)c12` [APIGENIN], the IC50 in data set [10] worked out at 3.57 µM.
For the molecule `O=C(/C=C/c1ccc2c(c1)O[C@@H](c1ccc(O)c(O)c1)[C@@H](C(=O)O)O2)O/C=C\c1ccc(O)c(O)c1`, the IC50 in data set [5] was 5.2 to 28.2 µM. In addition, the Ratio IC50 in [13] was 1.02.
`O=c1nc(-c2ccncc2)cc(-c2ccco2)[nH]1`: the IC50 in [1] worked out at 7.23 µM. Also, in data set [2], the “Ratio IC50” value was determined as 1.69.
Regarding `O=c1c(-c2ccc(O)cc2)coc2cc(O)cc(O)c12` [GENISTEIN], the IC50 in [17] is 1.73 µM. Also, the “Ratio IC50” value in [2] was found to be 2.04.
With `O=c1cc(-c2ccc(-c3ccccc3)cc2)oc2cc(O)cc(O)c12`, the half-maximal inhibitory concentration (IC50) in data set [5] was found to be 0.0136 µM. Also, the Ratio IC50 in data set [13] amounted to 28.2.
With `CC1(C)C=Cc2cc(C(=O)/C=C/c3ccc(O)c(O)c3)c(O)cc2O1`, in [6], half-maximal inhibition (IC50) required 1.8 µM. In data set [4], the “Ratio IC50” value turned out to be 1.11.
On to `O=c1c(O)c(-c2ccc(O)c(O)c2)oc2cc(O)cc(O)c12` [QUERCETIN], for which the values for the IC50 in [5] and in [15] were 0.383 µM and 0.4 µM, respectively.
As for `N#Cc1cc(-c2n[nH]c(-c3ccncc3)n2)ccn1` [TOPIROXOSTAT], in data set [18], the Ki was determined as 0.0057 µM.
Molecule `O=c1cc(-c2ccccc2)oc2cc(O)c(O)c(O)c12` [BAICALEIN] had an IC50 in [7] of 71.5 µM. For the same molecule, the “Ratio IC50” value in data set [2] is reported as 3.61.
For the molecule `CCCCCCSc1nc2c(=O)[nH]cnc2[nH]1`, the Ratio IC50 in data set [8] amounted to 7.5. The IC50 in data set [9] worked out at 0.56 µM.
Take `Oc1c(Cl)cc(Cl)cc1C1Nc2ccccc2-c2cc(-c3ccccc3)nn21` (stereo not drawn): the IC50 in data set [16] turned out to be 11 µM. Further, the “Ratio IC50” value in [4] is reported as 2.89.
On to `O=c1cc(-c2ccc(-c3ccccc3)cc2)oc2cc(O)ccc12`, for which the IC50 in data set [5] amounted to 0.347 µM. Also, the Ratio IC50 in data set [13] fell in the range of 1.1 to 1.74.
